Results: PMC3578785, “Improved BM212 MmpL3 Inhibitor Analogue Shows Efficacy in Acute Murine Model of Tuberculosis Infection” (PLoS ONE, 2013)
Converted amounts (≈) assume the structure as drawn. Like-named read-outs stand apart in the source and are kept apart here.

How the values were obtained:
H37Rv = test system: H37Rv; parameters: species or system mice; conditions: mouse, in vivo, po
in vivo = conditions: female, C57BL/6, mouse, po
in vitro [1] = format: in vitro ADME, mouse; conditions: for half-life / t1/2 in mouse microsomes: mouse microsomes; for half-life: read-out: t1/2 in mouse microsomes
Procedure: (§1) Protocol S6. Microsomal fraction stability experimental procedure.
(§2) Pooled mouse and human liver microsomes are purchased from Xenotech. Microsomes (final protein concentration 0.5 mg/mL, MgCl2 (final concentration = 5 mM) and test compound (final substrate concentration = 0.5 µM; final DMSO concentration = 0.5%) in 0.1M phosphate buffer pH 7.4 were pre-incubated at 37°C prior to the addition of NADPH (final concentration = 1 mM) to initiate the reaction. The final incubation volume was 600 µL. A control incubation was included for each compound tested where 0.1 M phosphate buffer pH 7.4 is added instead of NADPH (minus NADPH). One control compound was included with each species. All incubations were performed singularly for each test compound. Each compound was incubated for 30 minutes and samples (90 µL) of incubate were taken at 0, 5, 15, 20 and 30 min. The control (minus NADPH) was sampled at 30 min only. The reactions were stopped by the addition of sample to 200 µL Acetonitrile:Methanol 3:1 containing internal standard. The terminated samples were centrifuged at 2.500 rpm for 20 min at 4°C to precipitate the protein.
(§3) Quantitative Analysis: following protein precipitation, the samples were analyzed using specific […]
(§4) Data Analysis: from a plot of ln peak area ratio (compound peak area/internal standard peak area) against time, the gradient of the line was determined. Subsequently, half-life and intrinsic clearance were calculated using the equations below:
(§5) Elimination rate constant (k) = (- gradient)
(§6) Half life (t1/2) (min) = […]
(§7) Intrinsic Clearance (CLint) (mL/min/g protein) = […] where V=Incubation volume mL/g microsomal protein.

M. tuberculosis H37Rv = test: microbe, parasite or virus in culture; format: cell-based; conditions: Mycobacterium tuberculosis, aerobic conditions
in vitro [2] = conditions: African green monkey
[3] = biological target: human serum albumin (HSA) (Homo sapiens, UniProt P02768); format: in vitro ADME
Procedure: Standard physical chemical property determination methods were used. Please see the Supporting Information for details.
Protocol S4. Determination of compounds binding to human serum albumin (HSA).
The determination of compounds binding to human serum albumin (HSA) was carried out by retention time measurements using immobilized HSA HPLC columns obtained from Chiral Technologies Ltd, France. The column dimensions were 50x3 mm. The mobile phase was 50 mM ammonium acetate buffer pH 7.4 and HPLC grade 2-propanol. HPLC Method: flow rate 1.8 ml/min applying 2.5 min 2-propanol gradient up to 30%. From 2.5 min to 4.5 min the 2-propanol concentration in the mobile phase was kept at 30%. From 4.5 min to 4.6 min, the 2-propanol concentration was decreased to 0% and kept like that until the end of the gradient run which was 6 min. A calibration set of compounds was first analyzed for which plasma protein binding data were available: Warfarin, Nizatidine, Bromazepam, Carbamazepine, Budesonide, Nicardipine, Indomethacine, Piroxicam, Naproxen. The calculation of the HSA binding data expressed as %HSA was carried out as described previously.

in vitro [4] = conditions: plasma, pH 7.4
in vitro [5] = format: in vitro ADME, human; conditions: for half-life / t1/2 in human microsomes: human microsomes; for half-life: read-out: t1/2 in human microsomes
Procedure: as §1, §2, §3, §4, §5, §6, §7

[6] = at 1 µM
[7] = not given; remark: listed apart in the source
[8] = Oral pharmacokinetic studies in mice, peripheral total blood; conditions: female, C57BL/6, mouse, whole blood
[9] = Vero cytotoxicity assay (MTT); conditions: African green monkey, Vero cells
[10] = test system: M. tuberculosis H37Rv bacilli; conditions: cited from earlier work

human serum albumin (HSA), sequence (P02768 25-609): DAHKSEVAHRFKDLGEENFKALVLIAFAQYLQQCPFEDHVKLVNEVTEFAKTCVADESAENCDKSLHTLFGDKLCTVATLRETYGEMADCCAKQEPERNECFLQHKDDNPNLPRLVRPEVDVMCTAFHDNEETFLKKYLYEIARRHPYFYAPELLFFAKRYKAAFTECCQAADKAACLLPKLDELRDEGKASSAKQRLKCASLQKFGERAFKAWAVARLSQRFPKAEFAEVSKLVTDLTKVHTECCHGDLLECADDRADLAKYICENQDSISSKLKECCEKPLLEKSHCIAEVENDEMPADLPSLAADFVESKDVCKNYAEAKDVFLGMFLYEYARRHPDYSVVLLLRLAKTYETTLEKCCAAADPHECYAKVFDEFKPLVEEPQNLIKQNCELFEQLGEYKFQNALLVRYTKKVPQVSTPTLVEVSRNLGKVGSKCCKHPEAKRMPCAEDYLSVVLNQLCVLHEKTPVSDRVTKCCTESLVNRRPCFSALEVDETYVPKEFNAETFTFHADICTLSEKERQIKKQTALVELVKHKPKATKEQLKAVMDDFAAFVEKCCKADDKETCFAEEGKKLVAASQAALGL

## Cc1c(CN2CCOCC2)cc(-c2ccc(C(C)C)cc2)n1-c1ccc(F)cc1 [Compound 9, 2-Methyl-3-[(morpholin-4-yl)-methyl]-5-[4-(i-propyl)phenyl]-1-[4-(fluoro)phenyl]-1H-pyrrole]
H37Rv
  ED99 (dose that reduces 2 logs bacterial burden in the lungs of mice; 95% confidence interval in parenthesis): 49 (43–54) mg/kg
In vivo; 50 mg/kg
  AUC(0-inf): 11.6 µM·h
  Cmax: 1620 nM
  Tmax: 60 min
  half-life: 60 min
In vitro [1]; pH 7.4
  half-life: > 30 min
M. tuberculosis H37Rv
  MIC: 0.12 µM (≈ 0.0471 µg/mL)
In vitro [2]
  CC50 at 72 h: 50.1 µM
[3]; human, pH 7.4
  HSA (%) binding: 97.71%
other
  melting point: 120 °C
HepG2 cells; human, 48 h
  Tox50, cytotoxicity in HepG2 cells: 15.3 µM
physchem; pH 2
  chromatographic logD: 1.47
physchem; pH 7.4
  chromatographic logD: 4.57
physchem; pH 10.5
  chromatographic logD: 4.95
In vitro [4]
  fraction unbound at 1 µM: < 0.001
In vitro [5]; human, 0.5 µM, pH 7.4
  Cli human: <0.5 mL/min/g
In vitro [5]; pH 7.4
  half-life: > 30 min

## COc1ccc(-c2cc(CN3CCOCC3)c(C)n2-c2ccc(C)cc2)cc1 [Compound 22, 2-Methyl-3-[(morpholin-4-yl)-methyl]-5-[4-(methoxy)phenyl]-1-[4-(methyl)phenyl]-1H-pyrrole]
In vitro [1]; mouse, 0.5 µM, pH 7.4
  Cli mouse: 12.62 mL/min/g
In vitro [1]; pH 7.4
  half-life: < 5 min
M. tuberculosis H37Rv
  MIC: 0.6 µM (≈ 0.226 µg/mL)
In vitro [2]
  CC50 at 72 h: 50.1 µM
[3]; human, pH 7.4
  HSA (%) binding: 95.64%
other
  melting point: 115 °C
HepG2 cells; human, 48 h
  Tox50, cytotoxicity in HepG2 cells: 11.3 µM
physchem; pH 2
  chromatographic logD: 1.02
physchem; pH 7.4
  chromatographic logD: 3.57
physchem; pH 10.5
  chromatographic logD: 4.11
In vitro [4]
  fraction unbound at 1 µM: 0.008
In vitro [5]; human, 0.5 µM, pH 7.4
  Cli human: 1.14 mL/min/g
In vitro [5]; pH 7.4
  half-life: > 30 min

## CCc1ccc(-n2c(-c3ccc(OC)cc3)cc(CN3CCOCC3)c2C)cc1 [Compound 23, 2-Methyl-3-[(morpholin-4-yl)-methyl]-5-[4-(methoxy)phenyl]-1-[4-(ethyl)phenyl]-1H-pyrrole]
In vitro [1]; mouse, 0.5 µM, pH 7.4
  Cli mouse: 7.8 ± 0.5 mL/min/g
In vitro [1]; pH 7.4
  half-life: < 5 min
M. tuberculosis H37Rv
  MIC: 0.3 µM (≈ 0.117 µg/mL)
In vitro [2]
  CC50 at 72 h: 16 µM
[3]; human, pH 7.4
  HSA (%) binding: 96.79%
other
  melting point: 72 °C
HepG2 cells; human, 48 h
  Tox50, cytotoxicity in HepG2 cells: 14.7 µM
physchem; pH 2
  chromatographic logD: 1.24
physchem; pH 7.4
  chromatographic logD: 4.05
physchem; pH 10.5
  chromatographic logD: 4.52
In vitro [4]
  fraction unbound at 1 µM: 0.002
In vitro [5]; human, 0.5 µM, pH 7.4
  Cli human: <0.5 mL/min/g
In vitro [5]; pH 7.4
  half-life: > 30 min

## CCCc1ccc(-n2c(-c3ccc(OC)cc3)cc(CN3CCOCC3)c2C)cc1 [Compound 24]
[6]
  PPB (%): >99.9%
[7]
  CHILogD pH 2: 1.46
  CHILogD pH 7.4: 4.52
  CHILogD pH 10.5: 4.97
In vitro [1]
  t1/2 in mouse microsomes: >30 min
Vero cells
  CC50: 31.2 µM
[3]
  HSA (%) binding: 97.43%
HepG2 cells
  Tox50, cytotoxicity in HepG2 cells: 2.1 µM
In vitro [5]
  Cli human: <0.5 mL/min/g
  t1/2 in human microsomes: >30 min

## COc1ccc(-c2cc(CN3CCOCC3)c(C)n2-c2ccc(C(C)C)cc2)cc1 [Compound 25]
[6]
  PPB (%): >99.9%
[7]
  CHILogD pH 2: 1.36
  CHILogD pH 7.4: 4.36
  CHILogD pH 10.5: 4.86
In vitro [1]
  Cli mouse: 10.55 mL/min/g
  t1/2 in mouse microsomes: <5 min
Vero cells
  CC50: 12.9 µM
[3]
  HSA (%) binding: 97.02%
HepG2 cells
  Tox50, cytotoxicity in HepG2 cells: 15.9 µM
In vitro [5]
  Cli human: 0.5 mL/min/g
  t1/2 in human microsomes: >30 min

## NNC(=O)c1ccncc1 [Isoniazid]
H37Rv
  ED99 (dose that reduces 2 logs bacterial burden in the lungs of mice; 95% confidence interval in parenthesis): 0.95 (0.86–1.1 ) mg/kg
[8]; 0.98 mg/kg
  AUC(0-inf): 5.5 µM·h
[9]
  CC50 at 72 h: > 256 µM

## COc1c(N2C[C@@H]3CCCN[C@@H]3C2)c(F)cc2c(=O)c(C(=O)O)cn(C3CC3)c12 [Moxifloxacin]
H37Rv
  ED99 (dose that reduces 2 logs bacterial burden in the lungs of mice; 95% confidence interval in parenthesis): 28 (26–29) mg/kg
[8]; 27.5 mg/kg
  AUC(0-inf): 9.4 µM·h

## CO[C@H]1/C=C/O[C@@]2(C)Oc3c(C)c(O)c4c(O)c(c(/C=N/N5CCN(C)CC5)c(O)c4c3C2=O)NC(=O)/C(C)=C\C=C\[C@H](C)[C@H](O)[C@@H](C)[C@@H](O)[C@@H](C)[C@H](OC(C)=O)[C@@H]1C [Rifampin, reference compound]
H37Rv
  ED99 (dose that reduces 2 logs bacterial burden in the lungs of mice; 95% confidence interval in parenthesis): 9.8 (9.0–11) mg/kg
In vivo; 10.4 mg/kg
  AUC(0-inf): 102 µM·h
In vitro [2]
  CC50 at 72 h: 207 µM

## CC(C)=CCC/C(C)=C/CNCCNC1C2CC3CC(C2)CC1C3 (centres unmarked) [SQ109]
[10]
  activity against M. tuberculosis H37Rv bacilli in anaerobic models: neither AU1235 nor SQ109 gave detectable activity

## AU1235
[10]; ref [17]-[19]
  activity against M. tuberculosis H37Rv bacilli in anaerobic models: neither AU1235 nor SQ109 gave detectable activity
